# Data published in patent publication US20110098296A1, “Thiazole And Oxazole Kinase Inhibitors” (priority 2007, published 2011).
# What was measured:
# Colo205 tumor cells = experiment: Method C: Cell Growth Inhibition Assay (CellTiter-Glo), Colo205; type: cell-based; settings: Homo sapiens, COLO 205, 72 h, 3 days, 4-parameter fit
# Procedure, shortened: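 Growth inhibition is expressed as the concentration giving 50% inhibition relative to vehicle controls, derived from a 4-parameter fit. Tumor cells plated at 500 per well were exposed for 3 days to compound (0.2% DMSO) before total ATP was quantified by CellTiter-Glo.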
# SK-MEL-28 tumor cells = experiment: Method C: Cell Growth Inhibition Assay (CellTiter-Glo), SK-MEL-28; type: cell-based; settings: Homo sapiens, SK-MEL-28, 72 h, 3 days, 4-parameter fit
# Procedure, shortened: (§1)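 Cells plated at 500 cells/well, dosed next day with 10-point 1:3 dilution series (0.2% final DMSO) and grown 3 days at 37 °C, 5% CO2. CellTiter-Glo luminescence (total ATP) served as cell-number surrogate; inhibition relative to DMSO controls, IC50 interpolated by 4-parameter fit.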
# HT-29 tumor cells = experiment: Method C: Cell Growth Inhibition Assay (CellTiter-Glo), HT-29; type: cell-based; settings: Homo sapiens, HT-29, 72 h, 3 days, 4-parameter fit
# Experimental: (§2) Human breast tumor cells (BT474) were cultured in RPMI (Mediatech 50-011-PB), containing 10% FBS (JRH Biosciences 12176) and 1% penicillin-streptomycin (Invitrogen 15140). Human head and neck tumor cells (HN5) were cultured in high glucose DMEM (Mediatech 50-013-PB) containing 10% FBS and 1% penicillin-streptomycin. Human colon tumor cells (Colo205) were cultured in RPMI (Mediatech 50-020-PB) containing 10% FBS and 1% penicillin-streptomycin. Human melanoma cancer cells (SK-MEL-28) were cultured in EMEM with nonessential amino acids (Mediatech 50-011-PB) containing 10% FBS, 1% sodium pyruvate (JT Baker 3354-04), and 1% penicillin-streptomycin. Human melanoma cancer cells (A375P F11s) were cultured in RPMI (Mediatech 50-020-PB) containing 10% FBS, 1% sodium pyruvate, and 1% penicillin-streptomycin. Human colon cancer cells (HT-29) were cultured in high glucose DMEM (Mediatech 50-013-PB) containing 10% FBS and 1% penicillin-streptomycin. Human melanoma cancer cells (SK-MEL-3) were cultured in McCoy's 5A (50-025-PB) containing 15% FBS, and 1% penicillin-streptomycin. All cell lines were maintained at 37° C. in a humidified 5% CO2, 95% air incubator. Cells were harvested using trypsin/EDTA (Invitrogen 25200), counted using an haemocytometer, and plated. For 96-well assays (using white full-area NUNC plates cat. #136102), cells were plated in 105 μL at the following densities (cells/well): HN5, 500; Colo205, 500; SK-MEL-28, 500; A375P-F11s, 500; HT-29, 500; SK-MEL-3, 500; and BT474, 3000. For 384-well assays (white full-area NUNC plates, cat. #781080), cells were plated in 48 μL at the following densities (cells/well): HN5, 500; Colo205, 500; SK-MEL-28, 500; A375P-F11s, 500; HT29, 500; SK-MEL-3, 500; and BT474, 2000.
# (§3) The next day, compounds were diluted as follow: For 96-well assays, 13.5 μL of compound in DMSO were diluted using nine (9) serial 1:3 dilutions of 4.5 μL in 9 μL of DMSO. Medium (270 μl/well of RPMI with 10% FBS and 1% penicillin-streptomycin) was added to the plates. Aliquots (7 μl) were added to cells in the final assay giving a final DMSO concentration of 0.2%. For 384-well assays, 15 μL of compound in DMSO were diluted using nine (9) serial 1:3 dilutions of 5 μL in 10 μL of DMSO, followed by a further dilution of 5 μL of compound with 95 μL of medium, of which 2 μL were added to cells in the final assay giving a final DMSO concentration of 0.2%. Cells were incubated at 37° C., 5% CO2 for 3 days.
# (§4) Total ATP was measured (as a surrogate estimate of cell number) using CellTiter-Glo® reagent (Promega G7571). Briefly, plates were removed from the incubator and allowed to equilibrate to room temperature for 30 minutes. CellTiter-Glo® (25 μL or 55 μL for 384-well or 96-well assays, respectively) reagent was added to each well and plates were shaken on an orbital plate shaker for 2 mins. Plates were incubated without shaking for a further 30 mins and read on an LJL Analyst GT reader in luminometer mode with an integration time of 0.5 seconds per well. Percent inhibition of cell growth was calculated relative to DMSO vehicle-treated control wells. Concentration of compound required to give 50% inhibition of vehicle-treated control cell growth (IC50) was interpolated using a 4-parameter fit for determining IC50 using the following equation: Y=A+((B−A)/(1+((C/X)̂D))) where X=IC50.
# HN5 tumor cells = experiment: Method C: Cell Growth Inhibition Assay (CellTiter-Glo), HN5; type: cell-based; settings: Homo sapiens, 72 h, 3 days, 4-parameter fit
# Procedure, shortened: as §1
# A375P F11s tumor cells = experiment: Method C: Cell Growth Inhibition Assay (CellTiter-Glo), A375P F11s; type: cell-based; settings: Homo sapiens, 72 h, 3 days, 4-parameter fit
# Experimental: as §2, §3, §4
# ErbB2 = molecular target: T1, ErbB2 (Homo sapiens, UniProt P04626); experiment: ErbB-2 substrate phosphorylation assay (HTRF); type: biochemical; settings: Method (A): Enzyme Mix incubated with compound at 20° C. for 1 hr, reaction started by adding Substrate Mix
# T1 construct: made in house; host or cells: baculovirus expression system
# Procedure, shortened: (§5)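 Baculovirus-expressed kinase (0.8 nM EGFR or 10 nM ErbB2 in enzyme mix) with Peptide C 0.8 μM and ATP 20 μM (substrate-mix levels), MOPS pH 7.5, MnCl2; 90 min, 20 °C, HTRF anti-phosphotyrosine. Method A adds 1 h enzyme–compound preincubation; B none. pIC50, final compound 0.00027–47.6 μM.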
# BT474 tumor cells = experiment: Method C: Cell Growth Inhibition Assay (CellTiter-Glo), BT474; type: cell-based; settings: Homo sapiens, BT-474, 72 h, 3 days, 4-parameter fit
# EGFR = molecular target: T2, EGFR (Homo sapiens, UniProt P00533); experiment: EGFR substrate phosphorylation assay (HTRF); type: biochemical; settings: Method (A): Enzyme Mix incubated with compound at 20° C. for 1 hr, reaction started by adding Substrate Mix
# T2 construct: made in house; host or cells: baculovirus expression system
# Procedure, shortened: as §5
# SK-MEL-3 tumor cells = experiment: Method C: Cell Growth Inhibition Assay (CellTiter-Glo), SK-MEL-3; type: cell-based; settings: Homo sapiens, SK-MEL3, 72 h, 3 days, 4-parameter fit
# Experimental: as §2, §3, §4
# T2 sequence (P00533 25-1210): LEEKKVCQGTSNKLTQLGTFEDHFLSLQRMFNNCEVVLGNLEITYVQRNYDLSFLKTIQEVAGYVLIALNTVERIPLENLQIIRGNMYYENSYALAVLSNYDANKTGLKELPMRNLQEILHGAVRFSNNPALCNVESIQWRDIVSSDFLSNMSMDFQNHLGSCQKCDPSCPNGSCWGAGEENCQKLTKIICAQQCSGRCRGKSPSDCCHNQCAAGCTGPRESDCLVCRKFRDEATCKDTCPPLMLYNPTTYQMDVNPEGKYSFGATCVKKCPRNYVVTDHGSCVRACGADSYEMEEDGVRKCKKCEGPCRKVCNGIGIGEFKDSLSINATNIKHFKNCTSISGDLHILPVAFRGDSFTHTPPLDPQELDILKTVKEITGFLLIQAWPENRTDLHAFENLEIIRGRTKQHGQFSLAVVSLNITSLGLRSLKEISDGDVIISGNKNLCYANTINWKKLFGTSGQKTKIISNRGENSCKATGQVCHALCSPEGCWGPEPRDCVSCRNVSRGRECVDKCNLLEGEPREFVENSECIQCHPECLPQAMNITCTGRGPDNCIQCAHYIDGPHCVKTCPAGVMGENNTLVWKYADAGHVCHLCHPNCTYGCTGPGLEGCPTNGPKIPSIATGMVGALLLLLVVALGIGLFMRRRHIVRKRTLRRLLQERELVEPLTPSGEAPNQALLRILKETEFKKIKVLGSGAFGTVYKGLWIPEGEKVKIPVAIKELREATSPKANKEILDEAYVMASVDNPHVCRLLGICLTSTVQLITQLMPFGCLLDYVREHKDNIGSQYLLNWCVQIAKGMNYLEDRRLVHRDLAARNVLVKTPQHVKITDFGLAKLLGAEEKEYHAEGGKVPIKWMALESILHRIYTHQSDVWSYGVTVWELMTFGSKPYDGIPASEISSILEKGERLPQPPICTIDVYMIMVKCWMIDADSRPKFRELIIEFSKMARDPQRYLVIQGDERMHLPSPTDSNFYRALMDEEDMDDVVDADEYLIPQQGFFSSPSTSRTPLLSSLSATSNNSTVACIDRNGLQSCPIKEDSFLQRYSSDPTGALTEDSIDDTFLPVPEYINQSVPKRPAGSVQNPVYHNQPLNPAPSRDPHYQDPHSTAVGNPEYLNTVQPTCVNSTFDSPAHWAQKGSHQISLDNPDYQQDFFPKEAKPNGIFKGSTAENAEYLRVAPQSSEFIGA
# T1 sequence (P04626 23-1255): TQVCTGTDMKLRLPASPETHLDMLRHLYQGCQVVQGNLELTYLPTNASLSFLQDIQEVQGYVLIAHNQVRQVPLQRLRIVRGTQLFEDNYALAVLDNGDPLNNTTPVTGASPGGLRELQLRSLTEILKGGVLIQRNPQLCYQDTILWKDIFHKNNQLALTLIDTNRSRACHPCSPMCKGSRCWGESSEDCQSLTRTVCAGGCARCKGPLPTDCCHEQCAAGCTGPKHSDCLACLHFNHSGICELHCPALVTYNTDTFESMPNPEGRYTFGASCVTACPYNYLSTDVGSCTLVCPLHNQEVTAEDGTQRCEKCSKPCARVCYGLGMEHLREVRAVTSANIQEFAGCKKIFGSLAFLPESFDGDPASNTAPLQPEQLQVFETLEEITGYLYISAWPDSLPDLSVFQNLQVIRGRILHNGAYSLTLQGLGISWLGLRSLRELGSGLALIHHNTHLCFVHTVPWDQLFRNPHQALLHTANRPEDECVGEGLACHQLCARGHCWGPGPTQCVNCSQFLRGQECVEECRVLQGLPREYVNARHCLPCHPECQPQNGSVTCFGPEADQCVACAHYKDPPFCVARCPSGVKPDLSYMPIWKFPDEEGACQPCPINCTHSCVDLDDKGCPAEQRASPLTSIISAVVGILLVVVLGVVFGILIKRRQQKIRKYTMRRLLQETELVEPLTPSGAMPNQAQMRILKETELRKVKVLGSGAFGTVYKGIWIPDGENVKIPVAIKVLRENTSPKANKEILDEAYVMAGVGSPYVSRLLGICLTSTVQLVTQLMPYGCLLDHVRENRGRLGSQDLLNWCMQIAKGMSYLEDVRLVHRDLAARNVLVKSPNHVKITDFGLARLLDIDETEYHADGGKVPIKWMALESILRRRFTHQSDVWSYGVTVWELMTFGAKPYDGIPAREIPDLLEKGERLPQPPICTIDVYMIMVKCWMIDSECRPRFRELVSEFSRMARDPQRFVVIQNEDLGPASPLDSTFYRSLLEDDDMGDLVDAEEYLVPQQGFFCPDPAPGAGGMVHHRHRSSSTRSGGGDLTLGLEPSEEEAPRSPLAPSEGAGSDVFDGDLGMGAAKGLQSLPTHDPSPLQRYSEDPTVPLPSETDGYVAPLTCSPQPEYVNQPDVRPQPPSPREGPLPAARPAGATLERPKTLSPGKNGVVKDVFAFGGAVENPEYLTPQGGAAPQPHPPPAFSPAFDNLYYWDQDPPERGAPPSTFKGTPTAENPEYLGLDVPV
SMILES,IC50 (Colo205 tumor cells) [nM],IC50 (SK-MEL-28 tumor cells) [nM],IC50 (HT-29 tumor cells) [nM],IC50 (HN5 tumor cells) [nM],IC50 (A375P F11s tumor cells) [nM],IC50 (ErbB2) [nM],IC50 (BT474 tumor cells) [nM],IC50 (EGFR) [nM],IC50 (SK-MEL-3 tumor cells) [nM]
"CN(C)CCOc1ccc(Nc2nccc(-c3sc(N(C)C)nc3-c3cccc(NC(=O)c4c(F)cccc4F)c3)n2)cc1Cl [Example 37, N-{3-[5-{2-[(3-Chloro-4-{[2-(dimethylamino)ethyl]oxy}phenyl)amino]-4-pyrimidinyl}-2-(dimethylamino)-1,3-thiazol-4-yl]phenyl}-2,6-difluorobenzamide]",100 to 1000,100 to 1000,100 to 1000,100 to 1000,100 to 1000,< 100,100 to 1000,< 100,> 1000
CN1CCc2ccc(Nc3nccc(-c4sc(N(C)C)nc4-c4cccc(NC(=O)c5c(F)cccc5F)c4)n3)cc2C1 [Example 38],100 to 1000,100 to 1000,100 to 1000,< 100,100 to 1000,< 100,100 to 1000,< 100,100 to 1000
"CN(C)c1nc(-c2cccc(NC(=O)c3c(F)cccc3F)c2)c(-c2ccnc(Nc3cccc(CN4CCCC4)c3)n2)s1 [Example 39, N-{3-[2-(Dimethylamino)-5-(2-{[3-(1-pyrrolidinylmethyl)phenyl]amino}-4-pyrimidinyl)-1,3-thiazol-4-yl]phenyl}-2,6-difluorobenzamide]",100 to 1000,> 1000,100 to 1000,100 to 1000,100 to 1000,< 100,< 100,< 100,100 to 1000
"CN(C)c1nc(-c2cccc(NC(=O)c3c(F)cccc3F)c2)c(-c2ccnc(Nc3ccc(OCCN4CCCC4)c(Cl)c3)n2)s1 [Example 40, N-{3-[5-{2-[(3-Chloro-4-{[2-(1-pyrrolidinyl)ethyl]oxy}phenyl)amino]-4-pyrimidinyl}-2-(dimethylamino)-1,3-thiazol-4-yl]phenyl}-2,6-difluorobenzamide]",100 to 1000,100 to 1000,100 to 1000,100 to 1000,100 to 1000,< 100,100 to 1000,< 100,100 to 1000
"CN1CCc2ccc(Nc3nccc(-c4sc(N5CCCC5)nc4-c4cccc(NC(=O)c5c(F)cccc5F)c4)n3)cc2C1 [Example 44, 2,6-Difluoro-N-{3-[5-{2-[(2-methyl-1,2,3,4-tetrahydro-7-isoquinolinyl)amino]-4-pyrimidinyl}-2-(1-pyrrolidinyl)-1,3-thiazol-4-yl]phenyl}benzamide]",100 to 1000,100 to 1000,100 to 1000,100 to 1000,> 1000,< 100,100 to 1000,< 100,> 1000
"CN(C)CCOc1ccc(Nc2nccc(-c3sc(N4CCN(C)CC4)nc3-c3cccc(NC(=O)c4c(F)cccc4F)c3)n2)cc1Cl [Example 45, N-{3-[5-{2-[(3-Chloro-4-{[2-(dimethylamino)ethyl]oxy}phenyl)amino]-4-pyrimidinyl}-2-(4-methyl-1-piperazinyl)-1,3-thiazol-4-yl]phenyl}-2,6-difluorobenzamide]",100 to 1000,> 1000,100 to 1000,100 to 1000,100 to 1000,< 100,100 to 1000,< 100,100 to 1000
